This note sets out measurements from patent US7893074B2, “2, 4-pyrimidinediamines useful in the treatment of neoplastic diseases, inflammatory and immune system disorders” (Novartis AG, priority 2003, dated 2011).

In assay [1] the target is FAK (Mus musculus, UniProt P34152). Kind of assay: Phos IC50 (phosphorylation). The assay is classed as cell-based.
In assay [2] the test system is T Cell. Kind of assay: T Cell Migration. Type of assay: cell-based.
The target of assay [3] is IGF-IR (Homo sapiens, UniProt P08069). Kind of assay: Cellular Capture ELISA of IGF-I induced autophosphorylation of the IGF-IR. The assay is classed as cell-based. The conditions noted are these: read-out: IGF-1R IC50. The method, then: In this assay the activity of the compounds of the invention against Insulin-like growth factor I (IGF-I) induced autophosphorylation of the IGF-IR is determined.
IGF-IR, sequence (P08069 31-1367): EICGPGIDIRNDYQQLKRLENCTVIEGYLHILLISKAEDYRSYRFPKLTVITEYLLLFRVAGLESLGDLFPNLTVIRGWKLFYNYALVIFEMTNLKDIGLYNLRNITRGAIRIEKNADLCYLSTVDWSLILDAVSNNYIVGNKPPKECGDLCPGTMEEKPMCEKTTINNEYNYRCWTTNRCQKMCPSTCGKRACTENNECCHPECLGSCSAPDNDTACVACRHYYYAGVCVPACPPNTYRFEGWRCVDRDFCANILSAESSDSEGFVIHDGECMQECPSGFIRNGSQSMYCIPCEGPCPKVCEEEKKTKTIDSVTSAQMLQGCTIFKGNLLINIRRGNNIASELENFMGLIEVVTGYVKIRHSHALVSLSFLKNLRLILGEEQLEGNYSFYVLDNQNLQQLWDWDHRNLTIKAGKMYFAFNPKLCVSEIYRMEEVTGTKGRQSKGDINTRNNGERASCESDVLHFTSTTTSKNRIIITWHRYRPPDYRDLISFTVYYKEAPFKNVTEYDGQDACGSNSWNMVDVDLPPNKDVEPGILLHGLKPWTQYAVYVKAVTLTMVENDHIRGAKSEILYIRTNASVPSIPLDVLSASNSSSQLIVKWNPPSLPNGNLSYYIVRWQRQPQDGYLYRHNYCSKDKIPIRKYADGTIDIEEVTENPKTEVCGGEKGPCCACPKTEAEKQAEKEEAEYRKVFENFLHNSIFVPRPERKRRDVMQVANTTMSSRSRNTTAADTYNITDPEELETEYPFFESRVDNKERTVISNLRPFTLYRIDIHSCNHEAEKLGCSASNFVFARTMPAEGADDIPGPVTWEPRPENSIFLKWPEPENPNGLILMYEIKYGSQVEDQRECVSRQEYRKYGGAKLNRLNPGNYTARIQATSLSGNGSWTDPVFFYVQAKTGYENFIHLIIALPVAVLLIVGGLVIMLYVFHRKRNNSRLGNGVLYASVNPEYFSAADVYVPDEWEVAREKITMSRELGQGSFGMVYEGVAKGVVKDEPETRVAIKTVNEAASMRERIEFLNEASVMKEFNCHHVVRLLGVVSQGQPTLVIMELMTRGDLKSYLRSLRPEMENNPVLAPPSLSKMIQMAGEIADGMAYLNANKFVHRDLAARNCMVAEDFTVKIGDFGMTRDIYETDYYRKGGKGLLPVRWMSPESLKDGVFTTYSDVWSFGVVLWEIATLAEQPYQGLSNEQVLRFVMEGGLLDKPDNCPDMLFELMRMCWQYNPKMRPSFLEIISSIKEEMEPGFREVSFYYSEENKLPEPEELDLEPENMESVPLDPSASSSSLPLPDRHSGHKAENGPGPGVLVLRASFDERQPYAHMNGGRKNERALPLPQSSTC
On the technique in general: ELISA stands for enzyme-linked immunosorbent assay.

For assay [4], the target named is Focal Adhesion Kinase (FAK) (Homo sapiens, UniProt Q05397). The assay is described as follows: FAK assay system (Focal Adhesion Kinase inhibition). Type of assay: biochemical.
Focal Adhesion Kinase (FAK), sequence (Q05397 384-706): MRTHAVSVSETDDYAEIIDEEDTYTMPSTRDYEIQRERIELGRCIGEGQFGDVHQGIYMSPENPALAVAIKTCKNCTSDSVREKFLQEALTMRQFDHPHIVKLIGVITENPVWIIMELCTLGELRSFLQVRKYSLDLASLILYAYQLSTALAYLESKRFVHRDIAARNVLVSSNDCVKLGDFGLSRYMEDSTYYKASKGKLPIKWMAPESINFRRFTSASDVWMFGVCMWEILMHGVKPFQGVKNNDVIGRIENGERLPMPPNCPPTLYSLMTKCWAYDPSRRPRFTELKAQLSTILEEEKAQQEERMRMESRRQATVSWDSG
The test system of assay [5] is Mouse mammary carcinoma 4T1 cells. Kind of assay: Anchorage-independent tumor cell growth assay. Type of assay: cell-based. The method, then:
Cells are cultured for 2 h and inhibitors are added at various concentrations in a final concentration of 0.1% DMSO. After 48 h, cell growth is assayed with the cell counting kit-8 (Wako Pure Chemical), which uses a water soluble tetrazolium salt WST8. Twenty μL of the reagent is added into each well and cells are further cultured for 2 h. The optical density is measured at 450 nm.

Each structure is given as a SMILES string. Read-outs that look alike come from different tables or passages of the source.

FAK, sequence (P34152 2-1052): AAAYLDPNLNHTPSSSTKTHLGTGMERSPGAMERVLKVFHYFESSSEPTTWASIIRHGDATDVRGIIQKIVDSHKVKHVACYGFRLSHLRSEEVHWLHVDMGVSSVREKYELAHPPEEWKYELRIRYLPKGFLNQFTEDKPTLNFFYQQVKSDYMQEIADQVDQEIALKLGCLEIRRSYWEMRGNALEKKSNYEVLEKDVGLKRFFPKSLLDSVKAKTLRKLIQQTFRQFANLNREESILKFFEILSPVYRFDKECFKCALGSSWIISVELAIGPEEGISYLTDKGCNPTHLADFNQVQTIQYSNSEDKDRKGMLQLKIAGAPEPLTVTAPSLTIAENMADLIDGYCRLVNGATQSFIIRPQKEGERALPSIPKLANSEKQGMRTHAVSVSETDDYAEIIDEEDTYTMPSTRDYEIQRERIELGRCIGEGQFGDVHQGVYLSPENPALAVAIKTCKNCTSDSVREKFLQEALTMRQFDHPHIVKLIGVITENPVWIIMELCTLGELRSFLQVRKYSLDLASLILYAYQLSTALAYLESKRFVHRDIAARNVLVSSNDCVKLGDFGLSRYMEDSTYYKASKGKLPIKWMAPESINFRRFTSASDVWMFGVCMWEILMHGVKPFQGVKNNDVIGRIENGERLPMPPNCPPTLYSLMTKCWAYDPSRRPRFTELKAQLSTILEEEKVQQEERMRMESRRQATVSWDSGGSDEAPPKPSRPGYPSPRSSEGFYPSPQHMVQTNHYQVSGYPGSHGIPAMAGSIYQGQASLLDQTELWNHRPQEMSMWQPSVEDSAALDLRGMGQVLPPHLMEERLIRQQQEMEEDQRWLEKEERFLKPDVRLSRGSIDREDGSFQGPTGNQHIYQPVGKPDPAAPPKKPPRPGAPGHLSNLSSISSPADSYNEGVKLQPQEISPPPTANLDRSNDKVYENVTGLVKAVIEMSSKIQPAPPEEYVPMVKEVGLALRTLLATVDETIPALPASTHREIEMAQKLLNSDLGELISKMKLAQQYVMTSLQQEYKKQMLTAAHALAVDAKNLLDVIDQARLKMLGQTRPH

For the compound `CNS(=O)(=O)c1ccccc1Nc1nc(Nc2ccc(OC3CCN(C)CC3)cc2OC)ncc1Br` [Example 3-33], the IC50 (usually the concentration needed to halve the response being measured) in assay [1] was 30 nM; in assay [2] (T-cell), 90 nM; in assay [3], 130 nM; in assay [4] (read-out: FAK IC50) it was 2.9 nM; in assay [5] (Mus musculus, 4T1), 50 nM.
For `CNS(=O)(=O)c1ccccc1Nc1nc(Nc2ccc(N3CCOCC3)cc2OC)ncc1Cl` [Example 20-1], the IC50 in assay [1] was 300 nM; in assay [2] (T-cell), 250 nM; in assay [3], 700 nM; in assay [4] (read-out: FAK IC50), 10 nM; in assay [5] (Mus musculus, 4T1) it was 180 nM.
Take `COc1cc(N2CCOCC2)ccc1Nc1ncc(Cl)c(Nc2ccccc2S(=O)(=O)NC(C)C)n1` [Example 19-8]: the IC50 in assay [1] is 30 nM; in assay [2] (T-cell), 290 nM; in assay [3], 130 nM; in assay [4] (read-out: FAK IC50), 3.2 nM; in assay [5] (Mus musculus, 4T1), 400 nM.
As for `COc1cc(N2CCC(N(C)C)C2)ccc1Nc1ncc(Cl)c(Nc2ccccc2S(=O)(=O)NC(C)C)n1` (stereo not shown) [Example 19-9], the IC50 in assay [2] (T-cell) was found to be 300 nM; in assay [3], 480 nM; in assay [4] (FAK IC50), 1.3 nM; in assay [5] (Mus musculus, 4T1) it was 390 nM.
In the case of `COc1cc(N2CCC(N3CCOCC3)CC2)ccc1Nc1ncc(Cl)c(Nc2ccccc2S(=O)(=O)C(C)C)n1` [Example 28-13], the IC50 turned out to be 100 nM in assay [1]; 290 nM in assay [2] (T-cell); 7.8 nM in assay [4] (read-out: FAK IC50); 550 nM in assay [5] (Mus musculus, 4T1).
For `COc1cc(N2CCC(O)CC2)ccc1Nc1ncc(Cl)c(Nc2ccccc2S(=O)(=O)C(C)C)n1` [Example 28-16] the same measures were 110 nM, 600 nM, 11 nM and 1000 nM.
Consider `COc1cc(N2CCOCC2)ccc1Nc1ncc(Cl)c(Nc2cccc3c2C(=O)N(C)C3)n1` [Example 12-1, 7-[5-Chloro-2-(2-methoxy-4-morpholin-4-yl-phenylamino)-pyrimidin-4-ylamino]-2-methyl-2,3-dihydro-isoindol-1-one], for which the IC50 in assay [1] amounted to 90 nM; in assay [2] (T-cell), 220 nM; in assay [4] (read-out: FAK IC50), 2.5 nM; in assay [5] (Mus musculus, 4T1), 400 nM.
Take `CNS(=O)(=O)c1ccccc1Nc1nc(Nc2cc(N3CCOCC3)ccc2OC)ncc1Br` [Example 3-32]: the IC50 in assay [1] was 180 nM; in assay [2] (T-cell) it was 280 nM; in assay [3] it was 120 nM; in assay [4] (read-out: FAK IC50) it was 14 nM; in assay [5] (Mus musculus, 4T1), 490 nM.
For `CCC(CC)NS(=O)(=O)c1ccccc1Nc1nc(Nc2ccc(OC3CCN(C)CC3)cc2OC)ncc1Cl` [Example 23-1], the IC50 in assay [1] is 600 nM; in assay [2] (T-cell) it was 630 nM; in assay [3] it was 530 nM; in assay [4] (read-out: FAK IC50), 3.4 nM; in assay [5] (Mus musculus, 4T1) it was 200 nM.
In the case of `CNS(=O)(=O)c1ccccc1Nc1nc(Nc2ccc(N3CCN(C(C)=O)CC3)cc2OC)ncc1Cl` [Example 20-2], the IC50 in assay [1] came to 120 nM; in assay [2] (T-cell) it was 750 nM; in assay [3], 520 nM; in assay [4] (read-out: FAK IC50), 9 nM; in assay [5] (Mus musculus, 4T1) it was 170 nM.
In the case of `CNS(=O)(=O)c1ccccc1Nc1nc(Nc2ccc(N3CCN(C)CC3)cc2OC)ncc1Br` [Example 3-39], the IC50 in assay [1] stood at 20 nM; in assay [2] (T-cell) it was 1000 nM; in assay [3], 90 nM; in assay [4] (read-out: FAK IC50), 2 nM; in assay [5] (Mus musculus, 4T1) it was 30 nM.
`CC(C)NS(=O)(=O)c1ccccc1Nc1nc(Nc2ccc(OC3CCN(C)CC3)cc2F)ncc1Cl` [Example 19-28]: the IC50 in assay [1] is 100 nM; in assay [2] (T-cell), 300 nM; in assay [3], 460 nM; in assay [4] (read-out: FAK IC50) it was 4.8 nM; in assay [5] (Mus musculus, 4T1), 120 nM.
Take `COc1cc(N2CCOCC2)ccc1Nc1ncc(Cl)c(Nc2ccccc2C(=O)N(C)C)n1` [Example 14-1]: the IC50 in assay [1] is 200 nM; in assay [2] (T-cell) it was 280 nM; in assay [4] (read-out: FAK IC50), 19 nM; in assay [5] (Mus musculus, 4T1) it was 1470 nM.
As for `CCCS(=O)(=O)c1ccccc1Nc1nc(Nc2ccc(N3CCC(N(C)C)C3)cc2OC)ncc1Cl` (stereo not shown) [Example 26-24], the IC50 worked out at 500 nM in assay [1], 900 nM in assay [2], 1 nM in assay [4] (read-out: FAK IC50) and 480 nM in assay [5].
Consider `CNS(=O)(=O)c1ccccc1Nc1nc(Nc2cc(N(C)C)ccc2OC)ncc1Br` [Example 3-64], for which the half-inhibitory concentration (IC50) in assay [1] came to 130 nM; in assay [2] (T-cell) it was 210 nM; in assay [4] (read-out: FAK IC50), 5 nM; in assay [5] (Mus musculus, 4T1), 700 nM.
As to `CCCS(=O)(=O)c1ccccc1Nc1nc(Nc2ccc(N3CCC(O)CC3)cc2OC)ncc1Cl` [Example 26-4], the IC50 in assay [1] was found to be 50 nM; in assay [2] (T-cell), 290 nM; in assay [3], 1160 nM; in assay [4] (read-out: FAK IC50) it was 4.9 nM; in assay [5] (Mus musculus, 4T1), 430 nM.
In the case of `CCNC(=O)c1ccccc1Nc1nc(Nc2ccc(OC3CCN(C)CC3)cc2OC)ncc1Cl` [Example 9-6], the IC50 in assay [1] was 3000 nM; in assay [2] (T-cell), 300 nM; in assay [4] (read-out: FAK IC50), 23 nM; in assay [5] (Mus musculus, 4T1), 400 nM.
`CNC1CCN(c2ccc(Nc3ncc(Cl)c(Nc4ccccc4S(=O)(=O)NC(C)C)n3)c(OC)c2)C1` (stereo not shown) [Example 19-1]: the IC50 in assay [1] was 200 nM; in assay [2] (T-cell), 290 nM; in assay [3] it was 1410 nM; in assay [4] (read-out: FAK IC50), less than 1 nM; in assay [5] (Mus musculus, 4T1), 300 nM.
In the case of `CCCS(=O)(=O)c1ccccc1Nc1nc(Nc2ccc(N3CCN(C(C)=O)CC3)cc2OC)ncc1Cl` [Example 26-2], the IC50 worked out at 30 nM in assay [1]; 90 nM in assay [2] (T-cell); 390 nM in assay [3]; 1.9 nM in assay [4] (read-out: FAK IC50); 120 nM in assay [5] (Mus musculus, 4T1).
Take `CCNC(=O)c1ccccc1Nc1nc(Nc2ccc(N3CCOCC3)cc2OC)ncc1Cl` [Example 9-1]: the IC50 in assay [1] came out at 360 nM; in assay [2] (T-cell), 600 nM; in assay [4] (read-out: FAK IC50), 22 nM; in assay [5] (Mus musculus, 4T1), 1000 nM.
The corresponding values for `CCCS(=O)(=O)c1ccccc1Nc1nc(Nc2cc(N3CCOCC3)ccc2OC)ncc1Cl` [Example 26-17] are 300 nM, 260 nM, 17 nM and 100 nM.
For `CNC(=O)c1ccccc1Nc1nc(Nc2ccc(N3CCC(NC)C3)cc2OC)ncc1Cl` (stereo not shown) [Example 7-12], the IC50 in assay [1] was 900 nM; in assay [2] (T-cell), 310 nM; in assay [3] it was 620 nM; in assay [4] (read-out: FAK IC50), 1.9 nM; in assay [5] (Mus musculus, 4T1), 1000 nM.
For `CNS(=O)(=O)c1ccccc1Nc1nc(Nc2cc(OC3CCN(C)CC3)ccc2OC)ncc1Br` [Example 3-76], the half-maximal inhibitory concentration (IC50) was determined as 290 nM in assay [1]; 700 nM in assay [2] (T-cell); 15 nM in assay [4] (read-out: FAK IC50); 1300 nM in assay [5] (Mus musculus, 4T1).
For `COc1cc(N2CCC[C@@H](C(N)=O)C2)ccc1Nc1ncc(Cl)c(Nc2ccccc2S(=O)(=O)C(C)C)n1` [Example 28-28], the IC50 in assay [1] was determined as 400 nM; in assay [2] (T-cell) it was 1000 nM; in assay [4] (read-out: FAK IC50) it was 5.2 nM; in assay [5] (Mus musculus, 4T1), 520 nM.
As for `COc1cc(N2CCOCC2)ccc1Nc1ncc(Cl)c(Nc2ccccc2C(=O)NC(C)C)n1` [Example 14-2], the IC50 came to 2000 nM in assay [1]; 1000 nM in assay [2] (T-cell); 190 nM in assay [4] (read-out: FAK IC50); 1100 nM in assay [5] (Mus musculus, 4T1).
